Legend:
[1] = test system: rats; assay: Tyramine-induced hypertension; assay type: in vivo, rat; details: data not shown
Source text: The 36 day treatment duration in this study was rationally designed to determine whether tolerance developed for any potential effects of BIIB074 on SBP or DBP, since BP effects resolved by day 28 in the earlier phase 1 trial. The data from this study show a slight trend towards a decrease in the BP difference between BIIB074 and placebo between day 4 and day 35, although differences were minimal at all time points. […] Thus, the body of evidence, encompassing clinical and preclinical studies, supports safety and minimal effects of BIIB074 on BP/cardiovascular parameters.

[2] = test system: healthy participants; assay: Phase 1 cross-over study, ambulatory blood pressure monitoring (ABPM); assay type: in vivo, human; details: for DBP: Change >10 and absolute value >80 mmHg, observations / SBP: Change >10 and absolute value >130 mmHg, observations: 300-400 mg repeat dose; for BIIB074-Placebo difference in change of 24 h average DBP / BIIB074-Placebo difference in change of 24 h average SBP / LS Mean change in 24 h average DBP from baseline / LS Mean change in 24 h average SBP from baseline: outpatient
Description: This was a Phase 1, randomized, double-blind, placebo-controlled, repeat dose, 2-period cross-over study to investigate the effect of BIIB074 300-400 mg bid on ambulatory blood pressure (ABP) in healthy participants (FIG. 2). The study comprised: screening (to occur a maximum of 30 days before the first baseline assessment); two 36-day treatment periods, each preceded by a baseline visit and separated by a 7-day washout (to minimize possible carry over effects); and a follow-up period of 7-14 days after last dose. Prior to this study, no females had received BIIB074; for this reason, a single dose BIIB074 session at the dose level of 400 mg was also conducted in female participants one week prior to the period 1 baseline visit. Following this session, some participants were predicted to exceed the predefined PK limit (area under the plasma concentration-time curve [AUC] 97 μg·h/mL) when receiving 400 mg bid at steady state. Therefore, in the subsequent phases of the study, all female participants received a lower dose of 300 mg bid (males received 400 mg bid).
Participants were assigned to treatment sequences in accordance with a randomization schedule generated by Discovery Biometrics, prior to the start of the study, using validated software. Study treatment was BIIB074 400 mg bid for males/300 mg bid for females, or placebo, for 36 days. Prior to dosing, volunteers were randomized into one of the following treatment sequences, BIIB074 (period 1):placebo (period 2) or placebo (period 1):BIIB074 (period 2), and more specifically AB and BA if male and CAB and CBA if female, where A=placebo, B=BIIB074 400 mg bid in males and 300 mg bid in females, C=BIIB074 400 mg single dose in females. Randomization numbers were assigned by the site ensuring there was a balance of sequences (AB/BA and CAB/CBA) in each group. Periods 1 and 2 were double-masked to patients and study personnel.
The primary endpoint was change in 24 h average SBP and DBP from baseline to day 36 as determined by ABPM. Secondary outcome measures included: change in 24 h average SBP and DBP from baseline to days 4 and 15; change in average SBP and DBP within a 12 h dosing interval from baseline to days 14 and 35 (inpatient); change in 24 h average ambulatory heart rate from baseline to days 4, 15 and 36; proportion of participants whose 24 h SBP and DBP increased by <5, 5-9, 10-14, 15-19, and >20 mm Hg compared with baseline; PK parameters of BIIB074 following a single oral dose in healthy female participants, and following repeated oral doses given twice daily to healthy male and female participants; PK/pharmacodynamic (PD) analyses to examine the correlation between ABP and plasma levels and/or metrics of the systemic exposure of BIIB074.
ABP was collected over 24 hours on an outpatient basis at baseline and at days 4, 15 and 36, and over 12 hours on an inpatient basis at baseline, and at days 14 and 35. The ABPM device was placed on the non-dominant arm (except in clinical situations that prohibited measuring BP in the non-dominant arm). BP and heart rate were measured every 15 minutes.
Non-inferiority was based on the one-sided 95% confidence interval (CI) for BIIB074-placebo excluding an effect of >5 mmHg in SBP or DBP. It was planned to recruit approximately 60 participants in order to obtain a minimum of 48 evaluable for ABPM during the repeat dose phase, for at least 90% power, assuming a within-subject standard deviation (SDw) of 8.21 mmHg.
ABPM data were analyzed using a repeated measures mixed effects model, whereby fixed effects were treatment, day, treatment*day, period, average baseline*day, period adjusted baseline*day, sex and treatment*sex; random effect was subject; and repeated effect was day. All summary statistics were carried out using SAS 8.02 for UNIX running under the Harmonisation of Analysis and Reporting Program (HARP) environment. […]

Cl.NC(=O)[C@@H]1CC[C@H](c2ccc(OCc3ccccc3F)cc2)N1 [Example 1, (5R)-5-(4-{[(2-Fluorophenyl)methyl]oxy}phenyl)-L-prolinamide hydrochloride]
Effects on tyramine-induced hypertension [1]: no effects | DBP: Change >10 and absolute value >80 mmHg, observations ([2]; Day 4, outpatient 24 h): 137 (10.6%) n (%) | SBP: Change >10 and absolute value >130 mmHg, observations ([2]; Day 4, outpatient 24 h): 116 (9.0%) n (%) | DBP: Change >10 and absolute value >80 mmHg, observations ([2]; Day 15, outpatient 24 h): 109 (8.3%) n (%) | SBP: Change >10 and absolute value >130 mmHg, observations ([2]; Day 15, outpatient 24 h): 95 (7.2%) n (%) | DBP: Change >10 and absolute value >80 mmHg, observations ([2]; Day 36, outpatient 24 h): 86 (6.9%) n (%) | SBP: Change >10 and absolute value >130 mmHg, observations ([2]; Day 36, outpatient 24 h): 63 (5.0%) n (%) | Slope of linear relationship DBP vs observed plasma concentration ([2]; PK/PD analysis, inpatient ABPM): approximately 0.00077±0.00012 mmHg/(ng/mL) | Slope of linear relationship SBP vs observed plasma concentration ([2]; PK/PD analysis, inpatient ABPM): ~0.00056±0.00013 mmHg/(ng/mL) | Average increase of SBP with plasma concentration ([2]; PK/PD analysis, over the 24 h interval): < 2 mmHg | Upper bound of one-sided 95% CI for BIIB074-placebo ([2]; SBP on day 4, outpatient): ~2.2 mmHg | Inpatient 12 h ABPM, difference to placebo ([2]; after 36 days of therapy): no significant differences | Increase in outpatient 24 h SBP or DBP ([2]; day 36, distribution of individual changes): no evidence to suggest a significant increase | Observations with DBP increase >10 mmHg and absolute value >80 mmHg ([2]; day 36, outpatient): 6.9% | Observations with SBP increase >10 mmHg and absolute value >130 mmHg ([2]; day 36, outpatient): 5.0% | Observations with increase from baseline in SBP>30 mmHg ([2]; day 36, outpatient 24 h (0%)): 4/1249 | Observations with increase from baseline in DBP>20 mmHg ([2]; day 36, outpatient 24 h (3%)): 35/1249 | Increase in change from baseline for SBP, DBP, and heart rate ([2]; inpatient ABPM, days 14 and 35): 2.0-2.5 mmHg/bpm | Upper bound of one-sided 95% CI for BIIB074-placebo ([2]; majority of SBP and DBP comparisons on days 4, 15, 36): < 2 mmHg | Non-inferiority to placebo, outpatient 24 h SBP and DBP ([2]; one-sided 95% CI excluding effect >5 mmHg): Non-inferiority of BIIB074 compared to placebo was demonstrated | BIIB074-Placebo difference in change of 24 h average DBP ([2]; Day 4): 0.789 mmHg | BIIB074-Placebo difference in change of 24 h average SBP ([2]; Day 4): 1.006 mmHg | LS Mean change in 24 h average DBP from baseline ([2]; Day 4, 300-400 mg bid): 1.856 mmHg | LS Mean change in 24 h average SBP from baseline ([2]; Day 4, 300-400 mg bid): 2.372 mmHg | BIIB074-Placebo difference in change of 24 h average DBP ([2]; Day 15): 0.645 mmHg | BIIB074-Placebo difference in change of 24 h average SBP ([2]; Day 15): 0.294 mmHg | LS Mean change in 24 h average DBP from baseline ([2]; Day 15, 300-400 mg bid): 0.907 mmHg | LS Mean change in 24 h average SBP from baseline ([2]; Day 15, 300-400 mg bid): 0.915 mmHg | BIIB074-Placebo difference in change of 24 h average DBP ([2]; Day 36): 0.287 mmHg | BIIB074-Placebo difference in change of 24 h average SBP ([2]; Day 36): −0.507 mmHg | LS Mean change in 24 h average DBP from baseline ([2]; Day 36, 300-400 mg bid): 0.201 mmHg | LS Mean change in 24 h average SBP from baseline ([2]; Day 36, 300-400 mg bid): −0.327 mmHg | Change in SBP and DBP, outpatient and inpatient ABPM ([2]; repeat doses for 36 days): lack of clinically relevant change

— patent US20210154170A1, “METHODS OF TREATING NEUROPATHIC PAIN” (Biogen MA Inc., priority 2018, published 2021)
